The text below walks through data of patent US5948884A, “Cyclosporin derivatives with anti-HIV effect” (priority 1995, dated 1999).

Converted amounts (≈) assume the structure as drawn.

One experiment concerns HIV-1 (strain IIIB). The note with it: MT4 cells infected with HIV-1 IIIB; p24 ELISA on third and fourth days after infection. (In general: An ELISA detects its analyte on a solid surface through an enzyme-linked reagent.)
In a further experiment the test system is HIV. The note with it: relative to the most strongly active substances of EP 484 281; cited from earlier work.

Experimental for HIV-1 (strain IIIB): Test for Antiviral Activity
HIV-1 (strain IIIB) was adsorbed on the cells for 2 hours at 37°. The inoculum was then removed and the infected cells were transferred to tissue culture plates which contained the test compound at different concentrations. In this context, the virus inoculum was chosen such that the concentration of viral p24 antigen increased exponentially in the cell supernatant up to the fourth day after the infection. On the third and fourth days after the infection, the cell supernatants were analyzed by ELISA for p24 antigen. IC50 values were determined by comparing the p24 concentrations in the supernatant from the infected, substance-treated cells and in the supernatant from the untreated infected control cells.

`C/C=C/C[C@@H](C)[C@@H](O)[C@H]1C(=O)N[C@@H](CC)C(=O)N(C)[C@H](CO)C(=O)N(C)[C@@H](CC(C)(C)O)C(=O)N[C@@H](C(C)C)C(=O)N(C)[C@@H](CC(C)C)C(=O)N[C@@H](C)C(=O)N[C@H](C)C(=O)N(C)[C@@H](CC(C)C)C(=O)N(C)[C@@H](CC(C)C)C(=O)N(C)[C@@H](C(C)C)C(=O)N1C` [3-N-methyl-(D)-serine-4-(gamma-hydroxy)-N-methylleucinecyclosporin]: the “IC50 (p24 antigen in cell supernatant)” value in the experiment on HIV-1 (strain IIIB) worked out at 0.1 µg/mL (≈ 0.0801 µM).

With “(gamma-hydroxy-N-methylleucine)cyclosporin”, the “activity against HIV, times weaker than MeIle-4-cyclosporin or MeVal-4-cyclosporin” value in the experiment on HIV was 5-6 times.
